Key:
[1] = system: idiopathic intracranial hypertension (IIH) patients; settings: small clinical trial, ref [27]; cited from earlier work
choroid plexus = test: ^86Rb^+ efflux from excised choroid plexus upon PKA inhibition; format: cell-based, rat; settings: H89 50 µM vs control, n = 5 of each, P < 0.01
patients = settings: midazolam anaesthesia, ref [48]; cited from earlier work
[2] = ref [58]; cited from earlier work

Exenatide: GLP-1R agonist Exenatide, which has the same amino acid sequence as Ex4
ICP reductions [1]: 1–3 mmHg

O=S(=O)(NCCNC/C=C/c1ccc(Br)cc1)c1cccc2cnccc12 [H89]
reduction of K^+ efflux across the luminal membrane (choroid plexus): 25%

Cc1ncc2n1-c1ccc(Cl)cc1C(c1ccccc1F)=NC2 [midazolam]
effect on ICP and perfusion pressure (patients): reported to modulate ICP and perfusion pressure in patients

semaglutide: another GLP-1 receptor agonist, semaglutide
risk of NAION [2]: associated with increased risk of non-arteritic anterior ischemic optic neuropathy (NAION)

— paper PMC12020230 (Fluids and Barriers of the CNS, 2025)
